# Experimental data reported in ChEMBL document CHEMBL3779887, “Robenidine Analogues as Gram-Positive Antibacterial Agents” (J Med Chem, 2016).
# Activity calls are given as the source filed them. No cut-off for these calls is given here.
# Legend:
# Escherichia coli [1] = assay: Antibacterial activity against Escherichia coli ATCC 25922 after 20 to 24 hrs in presence of polymyxin B nonapeptide; format: functional
# [2] = Metabolic stability in human liver microsomes assessed as compound loss after 60 mins; format: ADME; details: read-out: Drug degradation
# Staphylococcus aureus [3] = assay: Inhibition of biofilm formation in methicillin-resistant Staphylococcus aureus after 24 hrs by MBEC assay; format: functional
# [4] = Cytotoxicity against human HEL299 cells after 24 hrs by WST-1 based colorimetric assay; format: cell-based, HEL 299
# Staphylococcus aureus [5] = assay: Antibacterial activity against methicillin-sensitive Staphylococcus aureus ATCC 29213 after 20 to 24 hrs in presence of 50% heat inactivated bovine serum; format: functional
# [6] = Intrinsic clearance in human liver microsomes assessed per mg of protein; format: ADME; details: read-out: CLH
# Staphylococcus aureus [7] = assay: Bactericidal activity against Methicillin-sensitive Staphylococcus aureus ATCC 29213 assessed as log reduction in bacterial cell number at 8 times MIC after 24 hrs by time-kill curve analysis; format: functional, organism-based
# [8] = Intrinsic clearance in mouse liver microsomes assessed per mg of protein; format: ADME; details: read-out: CLH
# Enterococcus = assay: Antibacterial activity against vancomycin-resistant Enterococcus after 20 to 24 hrs; format: functional
# Staphylococcus aureus [9] = assay: Antibacterial activity against methicillin-sensitive Staphylococcus aureus ATCC 25923 after 20 to 24 hrs; format: functional
# [10] = Solubility of the compound at pH 6.5; format: physicochemical; details: buffer
# Staphylococcus aureus [11] = assay: Antibacterial activity against methicillin-sensitive Staphylococcus aureus ATCC 6538 after 20 to 24 hrs in presence of 50% heat inactivated bovine serum; format: functional
# Escherichia coli [12] = assay: Antibacterial activity against Escherichia coli ATCC 25922 after 20 to 24 hrs; format: functional
# Staphylococcus aureus [13] = assay: Bactericidal activity against methicillin-sensitive Staphylococcus aureus ATCC 49775 after 24 and 48 hrs; format: functional
# [14] = Solubility of the compound at pH 2; format: physicochemical; details: buffer
# Staphylococcus aureus [15] = assay: Bactericidal activity against […] Staphylococcus aureus clinical isolate USA300 assessed as log reduction in bacterial cell number at 4 times MIC after 8 hrs by time-kill curve analysis; format: functional
# Staphylococcus aureus [16] = assay: Bactericidal activity against […] Staphylococcus aureus clinical isolate USA300 assessed as log reduction in bacterial cell number at 4 times MIC after 24 hrs by time-kill curve analysis; format: functional, organism-based
# Staphylococcus aureus [17] = assay: Antibacterial activity against methicillin-resistant Staphylococcus aureus after 20 to 24 hrs; format: functional
# [18] = Selectivity index, ratio of GI50 for human HEL299 cells to MIC50 for methicillin-sensitive Staphylococcus aureus clinical isolate; format: functional, HEL 299
# Staphylococcus aureus [19] = assay: Bactericidal activity against […] Staphylococcus aureus clinical isolate USA300 assessed as log reduction in bacterial cell number at MIC after 24 hrs by time-kill curve analysis; format: functional, organism-based
# Staphylococcus aureus [20] = assay: Antibacterial activity against methicillin-resistant Staphylococcus aureus clinical isolate after 20 to 24 hrs; format: functional
# Staphylococcus aureus [21] = assay: Antibacterial activity against methicillin-sensitive Staphylococcus aureus ATCC 49775 after 20 to 24 hrs; format: functional
# Staphylococcus aureus [22] = assay: Bactericidal activity against Methicillin-sensitive Staphylococcus aureus ATCC 29213 assessed as log reduction in bacterial cell number at MIC after 8 hrs by time kill curve analysis
# Staphylococcus aureus [23] = assay: Ratio of MBC for methicillin-sensitive Staphylococcus aureus ATCC 49775 to MIC90 for methicillin-sensitive Staphylococcus aureus ATCC 49775; format: functional
# Staphylococcus aureus [24] = assay: Bactericidal activity against methicillin-sensitive Staphylococcus aureus ATCC 29213 assessed as log reduction in bacterial cell number at 8 times MIC after 8 hrs by time-kill curve analysis; format: functional
# Staphylococcus aureus [25] = assay: Antibacterial activity against methicillin-sensitive Staphylococcus aureus ATCC 29213 after 20 to 24 hrs; format: functional
# Escherichia coli [26] = assay: Ratio of MIC90 for Escherichia coli ATCC 25922 to MIC90 for Escherichia coli ATCC 25922 in presence of polymyxin B nonapeptide; format: functional
# Staphylococcus aureus [27] = assay: Bactericidal activity against […] Staphylococcus aureus clinical isolate USA300 assessed as log reduction in bacterial cell number at 8 times MIC after 24 hrs by time-kill curve analysis; format: functional, organism-based
# Staphylococcus aureus [28] = assay: Bactericidal activity against methicillin-sensitive Staphylococcus aureus clinical isolate USA300 assessed as log reduction in bacterial cell number at MIC after 8 hrs by time-kill curve analysis; format: functional
# Pseudomonas aeruginosa = assay: Ratio of MIC90 for Pseudomonas aeruginosa ATCC 27853 to MIC90 for Pseudomonas aeruginosa ATCC 27853 in presence of polymyxin B nonapeptide; format: functional
# [29] = Cytotoxicity against human HepG2 cells after 24 hrs by WST-1 based colorimetric assay; format: cell-based
# [30] = Selectivity index, ratio of GI50 for human HEL299 cells to MIC50 for methicillin-resistant Staphylococcus aureus clinical isolate; format: functional, HEL 299
# Staphylococcus aureus [31] = assay: Bactericidal activity against methicillin-sensitive Staphylococcus aureus ATCC 6538 after 24 and 48 hrs; format: functional
# Staphylococcus aureus [32] = assay: Bactericidal activity against Methicillin-sensitive Staphylococcus aureus ATCC 29213 assessed as log reduction in bacterial cell number at 4 times MIC after 24 hrs by time kill curve analysis; format: functional, organism-based
# Staphylococcus aureus [33] = assay: Bactericidal activity against Methicillin-sensitive Staphylococcus aureus ATCC 29213 assessed as log reduction in bacterial cell number at 2 times MIC after 24 hrs by time kill curve analysis; format: functional, organism-based
# Staphylococcus aureus [34] = assay: Bactericidal activity against […] Staphylococcus aureus clinical isolate USA300 assessed as log reduction in bacterial cell number at 2 times MIC after 24 hrs by time-kill curve analysis; format: functional, organism-based
# [35] = Toxicity in po dosed rat; format: organism-based; details: in vivo
# Staphylococcus aureus [36] = assay: Antibacterial activity against methicillin-sensitive Staphylococcus aureus ATCC 29213 after 20 to 24 hrs in presence of 50% heat inactivated bovine serum
# Staphylococcus aureus [37] = assay: Ratio of MBC for methicillin-sensitive Staphylococcus aureus ATCC 29213 to MIC90 for methicillin-sensitive Staphylococcus aureus ATCC 29213; format: functional
# [38] = Lipophilicity, logD of the compound at pH 7.4; format: physicochemical; details: buffer
# [39] = Toxicity in po dosed male rabbit; format: organism-based, Oryctolagus cuniculus; details: in vivo
# Staphylococcus aureus [40] = assay: Antibacterial activity against Staphylococcus aureus ATCC 29213 after 20 to 24 hrs in presence of 2% heat inactivated bovine serum; format: functional
# Babesia microti = assay: Antiprotozoal activity against Babesia microti ATCC PRA-99 infected in BALB/c mouse assessed as suppression of parasitemia at 25 and 50 mg/kg, administered 4 times daily; format: functional
# Staphylococcus aureus [41] = assay: Bactericidal activity against methicillin-sensitive Staphylococcus aureus ATCC 29213 assessed as log reduction in bacterial cell number at 4 times MIC after 8 hrs by time-kill curve analysis; format: functional
# Staphylococcus aureus [42] = assay: Bactericidal activity against methicillin-sensitive Staphylococcus aureus ATCC 29213 assessed as log reduction in bacterial cell number at MIC after 8 hrs by time-kill curve analysis; format: functional
# [43] = Selectivity index, ratio of GI50 for human HepG2 cells to MIC50 for methicillin-sensitive Staphylococcus aureus clinical isolate; format: functional
# Staphylococcus aureus [44] = assay: Bactericidal activity against methicillin-sensitive Staphylococcus aureus ATCC 29213 assessed as log reduction in bacterial cell number at 2 times MIC after 8 hrs by time-kill curve analysis; format: functional
# [45] = Metabolic stability in mouse liver microsomes assessed as compound loss after 60 mins; format: ADME; details: read-out: Drug degradation
smiles,measurement,setting,value
N=C(N/N=C/c1ccc(Cl)cc1)N/N=C/c1ccc(Cl)cc1 [ROBENIDINE],MIC90,Escherichia coli [1],21.6 µM
same,metabolised at 1 h,[2],< 15%
same,INH,Staphylococcus aureus [3],>43.2 µM
same,GI50 at 24 h,[4],17.7 µM
same,MIC90,Staphylococcus aureus [5],> 250 µM
same,microsomal CLint,[6],< 7 µL/min/mg
same,Activity,Staphylococcus aureus [7],inactive
same,microsomal CLint,[8],< 7 µL/min/mg
same,MIC,Enterococcus,4.7 µM
same,MIC90,Staphylococcus aureus [9],5.4 µM
same,solubility,[10],< 1.6 µg/mL
same,MIC90,Staphylococcus aureus [11],> 250 µM
same,MIC,Escherichia coli [12],> 400 µM
same,MBC,Staphylococcus aureus [13],5.4 µM
same,solubility,[14],6.3 µg/mL
same,Activity,Staphylococcus aureus [15],>=4 log10CFU/ml
same,Activity,Staphylococcus aureus [16],inactive
same,MIC,Staphylococcus aureus [17],8.1 µM
same,Selectivity Index,[18],2
same,Activity,Staphylococcus aureus [19],inactive
same,MIC90,Staphylococcus aureus [20],5.4 µM
same,MIC90,Staphylococcus aureus [21],5.4 µM
same,Activity,Staphylococcus aureus [22],inactive
same,Ratio,Staphylococcus aureus [23],1
same,Activity,Staphylococcus aureus [24],>=4 log10CFU/ml
same,MIC90,Staphylococcus aureus [25],5.4 µM
same,Ratio,Escherichia coli [26],10
same,Activity,Staphylococcus aureus [27],inactive
same,Activity,Staphylococcus aureus [28],>=4 log10CFU/ml
same,Ratio,Pseudomonas aeruginosa,10
same,GI50 at 24 h,[29],25.4 µM
same,Selectivity Index,[30],2
same,MBC,Staphylococcus aureus [31],5.4 µM
same,Activity,Staphylococcus aureus [32],inactive
same,Activity,Staphylococcus aureus [33],inactive
same,Activity,Staphylococcus aureus [34],inactive
same,LD50,[35],3000 mg/kg
same,MIC90,Staphylococcus aureus [36],> 250 µM
same,Ratio,Staphylococcus aureus [37],1
same,logD,[38],4.5
same,LD50,[39],1500 mg/kg
same,MIC90,Staphylococcus aureus [40],43.1 µM
same,inhibition (INH),Babesia microti,100%
same,Activity,Staphylococcus aureus [41],>=4 log10CFU/ml
same,Activity,Staphylococcus aureus [42],>=4 log10CFU/ml
same,Selectivity Index,[43],2
same,Activity,Staphylococcus aureus [44],>=4 log10CFU/ml
same,metabolised at 1 h,[45],< 15%
